Like-named read-outs stand apart in the source and are kept apart here.
Key:
[1] = tested on: fibrin-induced microglia activation; test: Image-based assay of fibrin-induced microglia activation (HTS and dose response); assay type: cell-based, rat; settings: for inhibition at 10 µM: Rattus norvegicus, Microglia, read-out: Fibrin % inhibition
primary rat microglia [2] = test: Cell toxicity (dead cells, size <150 μm2) in coated fibrin (cFib) assay;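 also: share of dead cells sized under 150 µm2 at 10 µM in fibrin-stimulated microglia HTS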
primary rat microglia [3] = test: Cell toxicity (dead cells, size <150 μm2) in LPS assay
[4] = tested on: LPS-induced microglia activation; test: Image-based assay of LPS-induced microglia activation (HTS and dose response); assay type: cell-based, rat; settings: for inhibition at 10 µM: Rattus norvegicus, Microglia, read-out: LPS % inhibition
[5] = tested on: fibrin- and LPS-induced microglia activation; test: cells; assay type: cell-based, rat
[6] = primary microglia HTS, fibrin stimulation, increased cell size (>800 μm^2) as marker of activation
[7] = primary microglia HTS, fibrin stimulation, decreased size (<150 μm^2) as marker of toxicity
[8] = primary microglia HTS, LPS stimulation, decreased size (<150 μm^2) as marker of toxicity
[9] = primary microglia HTS, LPS stimulation, increased cell size (>800 μm^2) as marker of activation
[10] = quadrant by fibrin and LPS inhibition in HTS of 1907 compounds
[11] = HTS of 1907 compounds, quadrant by fibrin and LPS inhibition

| SMILES | Fibrin % inhibition [1, 6] [%] | Fibrin % cell toxicity (primary rat microglia [2]; [7]) [%] | LPS % cell toxicity (primary rat microglia [3]; [8]) [%] | LPS % inhibition [4, 9] [%] | Quadrant (FIG. 5b) [5, 10] | also measured |
| --- | --- | --- | --- | --- | --- | --- |
| C[N+](C)(C)CC(O)CC(=O)O.[Cl-] (centres unmarked) |  |  |  |  |  | Fibrin % inhibition ([1]; primary HTS, 10 μM, fibrin-stimulated primary microglia): −23%; Fibrin % cell toxicity (primary rat microglia [2]; primary HTS, 10 μM, fibrin assay, dead cells size <150 μm2): 1%; LPS % cell toxicity (primary rat microglia [3]; primary HTS, 10 μM, LPS assay, dead cells size <150 μm2): 0%; LPS % inhibition ([4]; primary HTS, 10 μM, LPS-stimulated primary microglia): 1%; Quadrant (FIG. 5b) ([5]; primary HTS, 10 μM): Q4 |
| N=C(NCCCCCCNC(=N)NC(=N)Nc1ccc(Cl)cc1)NC(=N)Nc1ccc(Cl)cc1 | 15 | 1 | 8 | 69 | Q1 |  |
| CSc1ccc2c(c1)C(N1CCN(C)CC1)Cc1ccccc1S2 (centres unmarked) | 11 | 1 | 0 | −5 | Q4 |  |
| CCN(CC)CCNC(=O)c1ccc(NC(C)=O)cc1.Cl | −11 | 0 | 1 | 9 | Q4 |  |
| C[n+]1cc2c3c(ccc2c2ccc4cc5c(cc4c21)OCO5)OCO3 | 24 | 0 | 55 | 101 | Q1 |  |
| Cc1scc2c1N(C(=O)CN1CCN(C)CC1)c1ccccc1NC2=O |  |  |  |  |  | Fibrin % inhibition ([1]; primary microglia HTS, 10 μM, fibrin-stimulated, cell size >800 μm^2 as marker of activation): 3%; Fibrin % cell toxicity (primary rat microglia [2]; primary microglia HTS, 10 μM, fibrin assay, cell size <150 μm^2 as marker of toxicity): 1%; LPS % cell toxicity (primary rat microglia [3]; primary microglia HTS, 10 μM, LPS assay, cell size <150 μm^2 as marker of toxicity): 0%; LPS % inhibition ([4]; primary microglia HTS, 10 μM, LPS-stimulated, cell size >800 μm^2 as marker of activation): 14%; Quadrant (FIG. 5b) [5, 11]: Q4 |
| OC[C@H]1O[C@@H](O[C@@H]2[C@@H](CO)OC(O)(CO)[C@H]2O)[C@H](O)[C@@H](O)[C@H]1O (mixture of isomers) [Lactulose] |  |  |  |  | Q4 | inhibition at 10 µM ([1]; primary microglia HTS, fibrin stimulation, activation = cell size >800 μm2): -14%; Fibrin % cell toxicity (primary rat microglia [2]; primary microglia HTS, fibrin stimulation, toxicity = cell size <150 μm2): 0%; LPS % cell toxicity (primary rat microglia [3]; primary microglia HTS, LPS stimulation, toxicity = cell size <150 μm2): 0%; inhibition at 10 µM ([4]; 48 h, primary microglia HTS, LPS stimulation, activation = cell size >800 μm2): 4% |
| C#C[C@]1(OC(C)=O)CC[C@H]2[C@@H]3CCC4=CC(=NO)CC[C@@H]4[C@H]3CC[C@@]21CC (mixture of isomers) [Norgestimate] |  | 0 | 0 |  | Q4 | inhibition at 10 µM [1, 6]: -5%; inhibition at 10 µM ([4]; 48 h, primary microglia HTS, LPS stimulation, increased cell size (>800 μm^2) as marker of activation): 12% |
| CCCCCCc1ccc(O)cc1O.Nc1c2ccccc2nc2ccccc12 [Acrisorcin, reference compound] | 87 | 2 | 52 | 113 | Q2 | IC50 ([1]; Table 1, dose response 0.001-20 μM, triplicates, primary rat microglia, 48 h, read-out: Fibrin IC50): 7 µM; IC50 ([1]; dose response, fibrin-induced microglia activation, read-out: Fibrin IC50): 7 µM; IC50 ([1]; fibrin-induced microglia activation, dose response, read-out: Fibrin IC50 (uM) (Suppl. Table 7)): 7 µM; IC50 (primary rat microglia [3]; read-out: Cell Toxicity IC50 (uM) [LPS assay], LPS assay): 6 µM; IC50 ([4]; LPS-induced microglia activation, dose response, read-out: LPS IC50 (uM) (Suppl. Table 7)): 5 µM; IC50 ([4]; Table 1, dose response 0.001-20 μM, triplicates, primary rat microglia, 48 h, read-out: LPS IC50): 5 µM; IC50 ([4]; dose response, LPS-induced microglia activation, read-out: LPS IC50): 5 µM; Hit ([5]; HTS hit classification): HIT (Hits were defined as molecules that exhibited greater than 50% inhibition of either fibrin or LPS activation); Quadrant (FIG. 5b) [5, 11]: Q2; Quadrant (FIG. 5b) ([5]; Table 1, screen at 10 μM): Q2; Cherry-picked Hit (Suppl. Table 7) ([5]; hit classification in microglia HTS): HIT (Hits were defined as molecules that exhibited greater than 50% inhibition of either fibrin or LPS activation) |
